Experimental data taken from US20060257875A1, “Affinity screening using "one-bead-one-compound" libraries” (Carlsberg A/S, priority 2003, published 2006).
Several values for one entry are separate records, joined by “and”; a condition that tells them apart may be missing. Equal values may be shown once. Entries after “also recorded” stand apart in the source; their conditions may differ. Starred links: 1 amine or outer side, 2 acyl side, 3 side chain; linkers in the order of their positions; H or OH if unused. Non-standard residues stand in square brackets, D forms with d. No end group written: not given here. Gua = 4-S-(Di-Boc-guanidino)-L-proline, CC(C)(C)OC(=O)N=C(NC(=O)OC(C)(C)C)N[C@H]1C[C@@H](C(=O)[*:2])N([*:1])C1; Hyp = O=C(O)[C@@H]1C[C@@H](O)CN1

Key:
[1] = test system: normal porcine macrophage proteins; test: Solid phase screening of small molecule Library 7 with labeled viral and porcine macrophage proteins; type: binding; details: Normal Macrophages
Text: (§1) Alternatively, the fluorescent ligand library beads containing bound protein obtained as described in Examples 47, 48, 49 and 51 were sorted using a COPAS (250) NF Bead Sorter (Union Biometrica, Somerville, Mass.) equipped with a dual detector. Both the cyanine dyes used in the labeling procedure, namely Cy 2 (emission wavelength—510 nm) and Cy 3 (emission wavelength—570 nm) were simultaneously excited at […] The bead selection window was then set-up such that all beads containing significant green fluorescence and no red flourescence were isolated. The unselected beads were then resorted to obtain beads containing red fluorescence (proteins from basal cells). The selected red and green fluorescent beads were then sorted into brightly and less brightly fluorescent beads, to give an indication of either the strength of binding of the ligand to a particular protein or the amount of protein present in the sample binding to the ligand.
(§2) Ligands can be completely or partially identified by MALDI_TOF-MS whether or not the library is synthesized by ladder synthesis. […] The ligand is cleaved from the resin bead depending on the type of linker used. […] Peptide fragments (ladder synthesis) or single compounds were extracted from the bead with 0.5 AL CH3CN, then 0.5 FL 70% CH3CN/H2O. […] In the case of the acid labile Rink linker (Library 7), the compound was released from the bead by treatment with 95% TFA or 30 min. The TFA solution was evaporated and the cleaved compounds were extracted in 2 μL 70% acetonitrile+0.1% TFA. This mixture was then transferred to a stainless steel disc to which 0.4 μL of CHC matrix+1.0% TFA was added. An additional 0.4 μL of CHC matrix+1.0% TFA was added to complete sample application.
(§3) A typical analysis employed 100-300 laser shots. […] A typical analysis employed 200-300 laser shots. The possible identity of the ligand was determined (Narrowed down) by comparing the recorded mass of the ligand with the masses of all possible compounds formed in the library. This comparison was carried out using an in-house created computer program The precise identity of the ligand can then be confirmed using MS fragmentation as described in Example 41.
(§4) Isolated proteins that bound to specific ligands were identified using peptide mass fingerprinting. Mass spectra were recorded on a Bruker Reflex m MALDI time-of-flight mass spectrometer (Bruker-Daltonics, Bremen, Germany) operated in the positive reflectron mode using delayed extraction. Measurements were performed using the following parameters: Power 83-84 V; lens 7.300. The sum of 200-300 shots was used for each spectrum.
(§5) The spectra were calibrated using bradykinin peptide. In some cases, internal mass calibration was performed using a porcine trypsin autolysis product Peptide masses were searched against peptide mass maps in the National Center for Biotechnology Information (NCBI) database using the following search engines found on the world wide web (www.) for each of: • MS-FIT (prospector.ucsf.edu/ucsfhtml/msfit.htm), • Profound (129.85.19.192/profound_biniWebProFound.exe), and • MASCOT (matrixscience.com).
(§6) A search was performed using the NCBI bacterial (E. coli) database and the mammalian databases for the isolated proteins from the E. coli and myocyte samples, respectively, and the Swiss Prot mammalian databases and the Swiss Prot viral databases were searched to identify the porcine macrophage proteins and proteins, respectively. A molecular mass range was estimated from 0-250 K Da, allowing a mass accuracy that varied from 0.1 Da (some cases 0.3 Da) for each peptide mass. A large pI range from 0-14 or 0-12 was considered for each search. If no proteins matched, the mass window was extended. Partial enzyme cleavages allowing for two missed cleavage sites and modification of cysteine by alkylation were considered in the search approaches. A protein was considered identified if the matched peptides covered at least 30% of the complete sequence. […]

[2] = test system: phenylephrine (PE)-treated myocyte proteins; test: Solid phase screening of Library 1 with labeled myocyte proteins; bound proteins identified by on-bead digest and peptide mass fingerprinting; type: binding, neonatal Wistar rats; details: Library 1 ligand on PEGA4000 bead; Phenylephrine Treated (Hyperthrophic) Myocytes
Procedure: Myocytes were prepared from 1 to 5 day old neonatal Wistar rats (University of Copenhagen) according to literature procedure described in Busk et al., 2002, Cardiovasc. Res., 56: 64-75 and plated into eight P10 culture plates at 6 million cells/plate.
Protein was extracted from myocytes prepared as described above for Example 9, using a new procedure modified from existing protocols, primarily: Arrott, et al., 1998, Anal Biochem. 258: 1-18. The media was removed from plates and adhered cells were treated for 10 minutes with ice cold phosphate buffer (0.25 mL, 10 mM, pH 7.5, augmented with 0.15 M NaCl 60 mM Benzamidine HCl, 5 mM EDTA, 10 μg/n E-64, 10 μg/mL Leu-peptin, 10 μg/mL Pepstatin A, and 1 mM PMSF). The cells were scraped off the plates and then lysed (on ice) in a sonicator (2×) using 10 seconds off/10 seconds on cycles.
The resulting suspension was augmented with CHAPS, DTT, and urea to a final concentration of CHAPS (1% w/v), DTT (5 mM), and urea (8 M). After 10-15 minutes on ice, the solution was centrifuged for 10 minutes at 15,000 rpm at 4° C. The supernatant was removed and protein content quantified using the NanoOrange Protein test (Molecular Probes, Eugene, Oreg.): Total protein recovered: 70.5 μg for PE-treated cells and 60 μg for basal cells.
Fluorescent dye Oregon Green 514 (OR) (Molecular Probes) was used to label the healthy/basal cells while Rhodamine Red (RR) (Molecular Probes) was used to label the PE-treated cells. The labeling procedures were carried out according to the manufacturer's protocol. The protein solutions (0.25 mL, 50.4 μg for PE cells and 0.25 mL, 42.8 μg for basal cells) were dialyzed against a solution of 10 mM phosphate buffer, 0.15 M NaCl, pH 7.5 and then 1 M NaHCO3 (0.025 mL) added to a final pH of 8.5. 10 μL of dye in dry DMF (10 mg/mL) was added and the sample stirred at room temperature for 2 hours. The protein solution was dialyzed extensively against 10 mM phosphate buffer, 0.15 M NaCl, pH 7.5, to remove excess dye.
Ligand library 1 (200 mg), prepared as described for Example 5, was transferred to a syringe fitted with a stop-valve and the ligand-beads were washed for 10 minutes (3×) with 10 mM phosphate buffer, pH 6.8, supplemented with 0.15 M NaCl, 1 mM Ca^2+, 1 mM Zn^2+, 1 mM Mn^2+, 1 mM Cu^2+, and 1 mM Mg^2+ (3 mL). The ligand-beads were treated with a 1% BSA solution for 30 minutes, then washed with buffer (1×). A mixture of labeled myocyte proteins, including both PE-induced protein (138 μL, 40 μg) and basal protein (167 μL, 40 μg) obtained as described above for Example 11, was prepared in 1.2 mL buffer, and added to the ligand library in the syringe. The proteins and ligand library were incubated at room temperature for 16 hours. The library was then washed with buffer for 5 minutes then with water for 3×5 minutes. The library was examined under a fluorescence microscope and brightly fluorescent red, green, and yellow beads (yellow indicative of both dyes red and green binding; the majority of the beads) were present, as well as unlabelled beads. The fluorescent beads were separated and retained for analysis.
The fluorescent ligand library beads containing bound protein obtained as described in Example 15 were sorted using a COPAS (250) NF Bead Sorter (Union Biometrica, Somerville, Mass.) equipped with a single flourescence emission. Beads emitting fluorescence of only one color contain proteins from one physical state, e.g. proteins expressed only in the PE-induced hypertrophic state (red) or proteins expressed only in the basal state (green). Since the instrument measures one fluorescence emission at a time, beads containing one type of color fluorescence were first sorted and then beads were resorted for emissions from the other fluorescence color. The library was first sorted such that all beads containing significant green fluorescence, basal proteins from healthy myocytes, were isolated. […]

[3] = test system: cardiac myocytes; test: Inhibition of DNA synthesis (cardiac hypertrophy) in cardiac myocytes treated with peptides (FIG. 3); type: cell-based
Text: The columns indicate average induction of DNA synthesis in cardiac myocytes treated with peptides. The Y-axis indicates fold induction (control basal=100%).
The importance of six ligands in cardiac hypertrophy was investigated by examining the effect of the ligand on the increase in protein synthesis (meaured by increase in DNA synthesis) in myocytes that had been treated with serum to induce a hypertrophic state (FIG. 3).

[4] = test system: porcine reproductive and respiratory virus infected macrophage proteins; test: Solid phase screening of small molecule Library 7 with labeled viral and porcine macrophage proteins; type: binding; details: Virus-infected Macrophages, (V) indicates virus proteins
Text: as §1, §2, §3, §4, §5, §6

[5] = hypertrophied myocytes (treated with serum to induce a hypertrophic state)

| Molecule | Identified Protein(s) [1] | Identified Protein(s) [4] | also measured |
| --- | --- | --- | --- |
| NC[C@H](NC(=O)c1cccc(-c2ccco2)n1)C(=O)O | Salt inducible kinase 2 (27529963); PVHL-ubiqquitin interacting enzyme 2 (23208620); Similar to glyceral- dehyde-3-phosphate dehydrogenase (gi27686413) | – | – |
| Abi-Thr-Hyp-Hyp-His- | – | – | Identified Protein(s) [2]: Phosphofructokinase (gi 7331123); Selenium binding pro-; also recorded: tein (gi 8848341/6677907); (Serine arginine rich pro-; also recorded: tein kinase (LA); Guanylate kinase (gi 20986250) (LA),; also recorded: (M); SPTR (gi 12842823) (M, Actin interacting protein; extent of DNA synthesis [3, 5]: reduced the extent of DNA synthesis; extent of DNA synthesis ([3]; normal myocytes): reduced the extent of DNA synthesis |
| COc1ccc(C[C@H](NC(=O)c2ccc(-c3ccc(C(=O)O)cc3)o2)C(=O)O)cc1OC | – | Carbohydrate (chondroitin synthase 2) (28466981); Glucosidase II alpha-subunit (gi5452936); Similar to chromosome 9 reading frame 24 (gi29437020) (V) Envelope glycoprotein C2V3 region (gi3925092); Envelope glycoprotein (gi15705767) | – |
| COc1ccc(-c2ccc(C(=O)O)cc2)c(OC)c1C(=O)N[C@@H](Cc1c[nH]cn1)C(=O)O | – | Carbohydrate (chondroitin synthase 2) (28466981); Glucosidase II alpha-subunit (gi5452936); Similar to chromosome 9 reading frame 24 (gi29437020) (V) Envelope glycoprotein C2V3 region (gi3925092); Envelope glycoprotein (gi15705767) | – |
| COc1ccc(OC)c(-c2ccc(C(=O)N[C@@H](Cc3ccc(OC)c(OC)c3)C(=O)O)o2)c1 | – | Carbohydrate (chondroitin synthase 2) (28466981); Glucosidase II alpha-subunit (gi5452936); Similar to chromosome 9 reading frame 24 (gi29437020) (V) Envelope glycoprotein C2V3 region (gi3925092); Envelope glycoprotein (gi15705767) | – |
| CC(O)[C@H](NC(=O)c1cc(-c2ccco2)cs1)C(=O)O (some centres unmarked) | – | Unnamed protein product (26336134); Seri- ne/threonine kinase 9/cylin dependent Serine/threonine kinase 9(23271297/4507281); Caveolin 1(gi 4972627/AAD347221) (V) Envelope glycoprotein (gi 3832399) | – |
| Phe-Gua-Pal-Tyr-Gua-Tyr | – | – | Identified Protein(s) [2]: Glucose-6-Phosphatase (gi 6679893/15488608); Succinate; also recorded: dehydrogenase; ARL-interacting protein (gi 4927202); also recorded: (M); SPTR (gi 12834839) (M), Nucleic acid binding; extent of DNA synthesis [3, 5]: reduced the extent of DNA synthesis; extent of DNA synthesis ([3]; normal myocytes): reduced the extent of DNA synthesis |
| COc1ccc(OC)c(-c2ccc(OC)c(C(=O)N[C@@H](Cc3c[nH]cn3)C(=O)O)c2OC)c1 | – | Carbohydrate (chondroitin synthase 2) (28466981); Glucosidase II alpha-subunit (gi5452936); Similar to chromosome 9 reading frame 24 (gi29437020) (V) Envelope glycoprotein C2V3 region (gi3925092); Envelope glycoprotein (gi15705767) | – |
| COc1ccccc1-c1ccc(C(=O)NCC(=O)O)o1 | Salt inducible kinase 2 (27529963); PVHL-ubiqquitin interacting enzyme 2 (23208620); Similar to glyceral- dehyde-3-phosphate dehydrogenase (gi27686413) | – | – |
| Pya-Gua-Abi-Asp-Abi-Tyr | – | – | Identified Protein(s) [2]: SPTR (gi 20869775) (M); Ribosomal proteins (60s) (gi and 20875941/6677773); (Calcium channel (gi 3202010) (M): and Slo channel protein isoform (gi 3644046) (M); Potassium and conductance calcium activated channel (gi 6754436 and NP_034740) (M);; Regulator of G-protein signalling 8 and (gi 9507049).; extent of DNA synthesis [3, 5]: reduced the extent of DNA synthesis; extent of DNA synthesis ([3]; normal myocytes): reduced the extent of DNA synthesis |
| Cc1ccc(-c2csc(C(=O)NCC(=O)O)c2)cc1 | Salt inducible kinase 2 (27529963); PVHL-ubiqquitin interacting enzyme 2 (23208620); Similar to glyceral- dehyde-3-phosphate dehydrogenase (gi27686413) | – | – |
| COc1ccc(-c2ccc(C(=O)NCC(=O)O)o2)cc1 | Salt inducible kinase 2 (27529963); PVHL-ubiqquitin interacting enzyme 2 (23208620); Similar to glyceral- dehyde-3-phosphate dehydrogenase (gi27686413) | – | – |
| O=C(O)[C@@H]1CCCN1C(=O)c1ccc(-c2ccco2)o1 | Salt inducible kinase 2 (27529963); PVHL-ubiqquitin interacting enzyme 2 (23208620); Similar to glyceral- dehyde-3-phosphate dehydrogenase (gi27686413) | – | – |
| Lys-Met-Hyp-Trp-Tyr-Gun (KM[Hyp]WY[Gua]) | – | – | Identified Protein(s) [2]: Cell surface glycoprotein (gi 23603627); Hypothetical; also recorded: protein (XP-179829; gi 14720727) |
